In US7378494B2, “Pituitary adenylate cyclase activating peptide (PACAP) receptor (VPAC2) agonist peptide” (Bayer HealthCare AG, priority 2002, dated 2008):

Molecular target: T1, VPAC1 (Homo sapiens, UniProt P32241)
T1 sequence (P32241 31-457): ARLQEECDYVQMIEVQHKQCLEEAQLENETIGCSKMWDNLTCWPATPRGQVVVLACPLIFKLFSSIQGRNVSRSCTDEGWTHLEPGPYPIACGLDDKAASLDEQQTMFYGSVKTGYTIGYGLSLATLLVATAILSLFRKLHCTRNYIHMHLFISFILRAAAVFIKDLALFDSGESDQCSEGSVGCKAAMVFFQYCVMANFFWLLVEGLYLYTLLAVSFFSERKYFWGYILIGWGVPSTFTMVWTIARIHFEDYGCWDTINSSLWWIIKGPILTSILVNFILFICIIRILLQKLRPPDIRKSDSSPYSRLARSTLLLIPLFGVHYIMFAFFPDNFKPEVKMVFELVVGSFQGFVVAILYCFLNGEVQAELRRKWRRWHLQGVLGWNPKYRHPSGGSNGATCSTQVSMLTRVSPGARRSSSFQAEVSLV
Assay: Cyclic AMP SPA, cells expressing VPAC1
Format: cell-based

Substance: PACAP-27
- agonist activity on VPAC1 (in words): potent agonist
